Columns and labels:
Solubility in water = type: physicochemical
pCREB = experiment: Jacob-induced CREB shutoff in hippocampal primary neurons expressing phosphodeficient Jacob; type: cell-based, rat; details: 2 μM OA, 20 min, neurons expressing phosphodeficient Jacob in the nucleus
Protocol: Hippocampal neuronal cultures were transfected with plasmid DNA using Lipofectamine2000 (Thermo Fisher Scientific) following the manufacturer's instructions. For LMO4 knockdown cells were expressing shRNA for 5 days; for Jacob knockdown 4 days. […]. The target sequences for LMO4 and NLS-Jacob knockdown (Spilker et al., 2016) as well as scrambled controls are indicated in key resources table. For Aβ-induced CREB shutoff experiments Aβ oligomers (Anaspec) were prepared as described previously (see previous section, (Grochowska et al., 2017)). Transfected neurons were treated with 500 nM Aβ1-42 or Aβ3 (pE)-42. Nitarsone was diluted in distilled water.

GluR1 = type: cell-based, rat
HEK293T cells = experiment: Heterologous co-immunoprecipitation from HEK293T cells; type: cell-based; details: 20 nM staurosporine, 3 h
GST-LMO4 = molecular target: T1, GST-LMO4 (Homo sapiens, UniProt P61968); experiment: Isothermal titration calorimetry (ITC); details: binding to LMO4, 25 mM Tris buffer pH 7.4, 50 mM NaCl
T1 construct: made in house; host or cells: E. coli BL21 (DE3)
T1 sequence (P61968 1-165): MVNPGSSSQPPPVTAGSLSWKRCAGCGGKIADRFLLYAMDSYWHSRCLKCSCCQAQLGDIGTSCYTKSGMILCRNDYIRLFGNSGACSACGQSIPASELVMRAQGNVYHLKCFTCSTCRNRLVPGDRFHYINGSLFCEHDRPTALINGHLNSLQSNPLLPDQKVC

Molecule: CC(NCCO)c1ccc([N+](=O)[O-])cc1 (stereo not shown) [NPEAE, 2-{[1-(4-nitrophenyl)ethyl]amino}ethan-1-ol]
- solubility in water (Solubility in water): soluble in water

Molecule: C=C1[C@@H](O)[C@@H]2O[C@]3(CC[C@H](/C=C/[C@@H](C)[C@@H]4CC(C)=C[C@@]5(O[C@H](C[C@@](C)(O)C(=O)O)CC[C@H]5O)O4)O3)CC[C@H]2O[C@@H]1[C@@H](O)C[C@H](C)[C@H]1O[C@@]2(CCCCO2)CC[C@H]1C [OA, okadaic acid]
- Jacob-induced CREB shutoff (pCREB): prevented Jacob-induced CREB shutoff

Molecule: NC1=N[C@H](O)[C@H]2[C@H]3O[C@]4(O)O[C@@H]([C@@H](O)[C@@]2(N1)[C@@H]4O)[C@]3(O)CO [TTX, tetrodotoxin]
- GluR1 surface expression (GluR1): induced upregulation of GluR1 surface expression

Molecule: CN[C@@H]1C[C@H]2O[C@@](C)([C@@H]1OC)n1c3ccccc3c3c4c(c5c6ccccc6n2c5c31)C(=O)NC4 [staurosporine]
- Jacob phosphorylation level (S180) (HEK293T cells): decreases Jacob phosphorylation level (S180)
- association of Jacob with CREB (HEK293T cells): decreases the association of Jacob with CREB
- association of Jacob with LMO4-tagRFP (HEK293T cells): increases its association with LMO4-tagRFP

B1: Jacob: synapto-nuclear protein messenger; recombinant protein titrated against LMO4 in ITC (protein, listed as Homo sapiens)
chain: MGAAASRRRALRSEAMSSVAAKVRAARAFGEYLSQSHPENRNGADHLLADAYSGHDGSPEMQPAPQNKRRLSLVSNGCYEGSLSEEPSIRKPAGEGPQPRVYTISGEPALLPSPEAEAIELAVVKGRRQRHPHHHSQPLRASPGGSREDVSRPCQSWAGSRQGSKECPGCAQLAPGPTPRAFGLDQPPLPETSGRRKKLERMYSVDRVSDDIPIRTWFPKENLFSFQTATTTMQAISVFRGYAERKRRKRENDSASVIQRNFRKHLRMVGSRRVKAQTFAERRERSFSRSWSDPTPMKADTSHDSRDSSDLQSSHCTLDEAFEDLDWDTEKGLEAVACDTEGFVPPKVMLISSKVPKAEYIPTIIRRDDPSIIPILYDHEHATFEDILEEIERKLNVYHKGAKIWKMLIFCQGGPGHLYLLKNKVATFAKVEKEEDMIHFWKRLSRLMSKVNPEPNVIHIMGCYILGNPNGEKLFQNLRTLMTPYRVTFESPLELSAQGKQMIETYFDFRLYRLWKSRQHSKLLDFDDVL
- Kd (GST-LMO4): 370 nM
